# Experimental data as given in PubChem BioAssay (NCI).
#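 GI50: concentration for 50% inhibition of growth. The concentration for full growth arrest is given as TGI.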
# Tests used:
# Assay in all cases: NCI-60 cell line screen, 384-well format
# [1] = test system: NCI-H226 lung
# [2] = test system: CAKI-1 renal
# [3] = test system: SF-268 CNS
# [4] = test system: SK-OV-3 ovarian
# [5] = test system: 786-0 renal
# [6] = test system: HCT-15 colon
# [7] = test system: MDA-MB-468 breast
# [8] = test system: HOP-62 NSCLC
# [9] = test system: RXF 393 renal
# [10] = test system: K-562 leukemia
# [11] = test system: CCRF-CEM leukemia
# [12] = test system: SF-539 CNS
# [13] = test system: RPMI-8226 leukemia
# [14] = test system: BT-549 breast
# [15] = test system: HCT-116 colon
# [16] = test system: SK-MEL-5 melanoma
# [17] = test system: NCI-H522 lung
# [18] = test system: KM12 colon
# [19] = test system: M14 melanoma
# [20] = test system: OVCAR-4 ovarian
# [21] = test system: HCC-2998 colon
# [22] = test system: HOP-92 NSCLC
# [23] = test system: MCF7 breast
# [24] = test system: SK-MEL-2 melanoma
# [25] = test system: NCI-H322M lung
# [26] = test system: LOX IMVI melanoma
# [27] = test system: UACC-62 melanoma
# [28] = test system: OVCAR-3 ovarian
# [29] = test system: COLO 205 colon
# [30] = test system: NCI-H460 NSCLC
# [31] = test system: MALME-3M melanoma
# [32] = test system: IGROV1 ovarian
# [33] = test system: HT29 colon
# [34] = test system: SW-620 colon
# [35] = test system: OVCAR-8 ovarian
# [36] = test system: A498 renal
# [37] = test system: NCI/ADR-RES ovarian
# [38] = test system: SK-MEL-28 melanoma
# [39] = test system: ACHN renal
# [40] = test system: DU-145 prostate
# [41] = test system: PC-3 prostate
# [42] = test system: A549 NSCLC
# [43] = test system: HS 578T breast
# [44] = test system: HL-60(TB) leukemia
# [45] = test system: SNB-19 CNS
# [46] = test system: MOLT-4 leukemia
# [47] = test system: SF-295 CNS
# [48] = test system: NCI-H23 lung
# [49] = test system: U251 glioblastoma
# [50] = test system: SN12C renal
# [51] = test system: MDA-MB-435 melanoma
# [52] = test system: TK-10 renal
# [53] = test system: EKVX NSCLC
# [54] = test system: UACC-257 melanoma
# [55] = test system: SNB-75 CNS
structure (smiles),measurement,setting,value
CCOC(=O)CCC(NC(=O)C(Cc1ccc(N(CCCl)CCCl)cc1)NC=O)C(=O)OCC (stereo not given),GI50,[1],1.71 µM
same,TGI,[1],10.9 µM
same,GI50,[2],0.463 µM
same,TGI,[2],2.14 µM
same,GI50,[3],0.737 µM
same,TGI,[3],2.28 µM
same,GI50,[4],3.27 µM
same,TGI,[4],12.4 µM
same,GI50,[5],1.34 µM
same,TGI,[5],2.91 µM
same,GI50,[6],4.54 µM
same,TGI,[6],16.8 µM
same,GI50,[7],0.339 µM
same,TGI,[7],0.763 µM
same,GI50,[8],1.72 µM
same,TGI,[8],4.13 µM
same,GI50,[9],1.76 µM
same,TGI,[9],3.19 µM
same,GI50,[10],13.1 µM
same,TGI,[10],27.8 µM
same,GI50,[11],0.131 µM
same,TGI,[11],0.281 µM
same,GI50,[12],0.837 µM
same,TGI,[12],2.16 µM
same,GI50,[13],0.355 µM
same,TGI,[13],0.899 µM
same,GI50,[14],12.1 µM
same,TGI,[14],27.5 µM
same,GI50,[15],4.13 µM
same,TGI,[15],24.3 µM
same,GI50,[16],1.22 µM
same,TGI,[16],2.59 µM
same,GI50,[17],0.729 µM
same,TGI,[17],2.11 µM
same,GI50,[18],15 µM
same,TGI,[18],36.3 µM
same,GI50,[19],0.449 µM
same,TGI,[19],1.4 µM
same,GI50,[20],2.6 µM
same,TGI,[20],5.83 µM
same,GI50,[21],0.712 µM
same,TGI,[21],13.9 µM
same,GI50,[22],1.02 µM
same,TGI,[22],3.49 µM
same,GI50,[23],4.06 µM
same,TGI,[23],25.9 µM
same,GI50,[24],0.64 µM
same,TGI,[24],1.85 µM
same,GI50,[25],13.8 µM
same,TGI,[25],30.1 µM
same,GI50,[26],2.69 µM
same,TGI,[26],13.2 µM
same,GI50,[27],0.758 µM
same,TGI,[27],2.27 µM
same,GI50,[28],1.14 µM
same,TGI,[28],2.71 µM
same,GI50,[29],0.602 µM
same,TGI,[29],2.38 µM
same,GI50,[30],0.566 µM
same,TGI,[30],2.91 µM
same,GI50,[31],1.03 µM
same,TGI,[31],2.22 µM
same,GI50,[32],1.37 µM
same,TGI,[32],5.37 µM
same,GI50,[33],3.71 µM
same,TGI,[33],16.6 µM
same,GI50,[34],2.86 µM
same,TGI,[34],20.6 µM
same,GI50,[35],3.24 µM
same,TGI,[35],17 µM
same,GI50,[36],5.47 µM
same,TGI,[36],26.6 µM
same,GI50,[37],8.38 µM
same,TGI,[37],21.2 µM
same,GI50,[38],1.48 µM
same,TGI,[38],3.34 µM
same,GI50,[39],0.446 µM
same,TGI,[39],1.88 µM
same,GI50,[40],2.42 µM
same,TGI,[40],5.42 µM
same,GI50,[41],5.25 µM
same,TGI,[41],19.1 µM
same,GI50,[42],5.77 µM
same,TGI,[42],27.5 µM
same,GI50,[43],2.58 µM
same,TGI,[43],14.3 µM
same,GI50,[44],0.0335 µM
same,TGI,[44],0.138 µM
same,GI50,[45],3.81 µM
same,TGI,[45],26.1 µM
same,GI50,[46],0.0322 µM
same,TGI,[46],0.113 µM
same,GI50,[47],2.12 µM
same,TGI,[47],4.49 µM
same,GI50,[48],1.12 µM
same,TGI,[48],2.99 µM
same,GI50,[49],1.82 µM
same,TGI,[49],6.04 µM
same,GI50,[50],0.604 µM
same,TGI,[50],2.61 µM
same,GI50,[51],3.19 µM
same,TGI,[51],8.84 µM
same,GI50,[52],11.4 µM
same,TGI,[52],29.2 µM
same,GI50,[53],18.9 µM
same,TGI,[53],41.6 µM
same,GI50,[54],1.97 µM
same,TGI,[54],4.65 µM
same,GI50,[55],2.35 µM
same,TGI,[55],5.59 µM
